Experimental data as given in paper PMC6949951, “α-Glucosidase Inhibition and Molecular Docking Studies of Natural Brominated Metabolites from Marine Macro Brown Alga Dictyopteris hoytii” (Marine Drugs, 2019).
Where two headings read alike, the source gives them in different places.

Target: α-Glucosidase (E.C.3.2.1.20) enzyme (Saccharomyces cerevisiae) (Saccharomyces cerevisiae, UniProt P53341)
Assay: biochemical
Format: biochemical
Procedure: α-Glucosidase (E.C.3.2.1.20) enzyme (Saccharomyces cerevisiae) inhibition activity was carried out by using previously described method. The enzyme (0.2 μ/mL) solution in phosphate buffered saline (PBS) (0.1 M, pH 6.8) with different concentrations of tested compounds (1, 0.5, 0.25, 0.125, 0.0625 and 0.0312 mM) at 37 °C were incubated for 15 min. After incubation, 0.7 mM p-nitrophenyl-α-D-glucopyranoside (a chromogenic substrate) was added and the change in absorbance was recorded at 400 nm for 30 min by microplate spectrophotometer (xMark™, BIO-RAD, California, LA, United States) per production of p-nitrophenyl. Al the isolated compounds were dissolve in DMSO (7.5% final) along with control. […] The IC50 values were calculated by using different concentrations of tested compounds. The results were processed by MS-Excel and Ez-fit software programs. The % inhibition was calculated by using the following formula:% Inhibition = 100 −(OD test well/OD control) × 100.

[1] = IC50 (Table 2, repeated beside docking results), S. cerevisiae α-glucosidase
[2] = α-Glucosidase inhibitory activity IC50, tested up to 1.0 mM, PBS pH 6.8, 37 °C, NA = not active
[3] = S. cerevisiae α-glucosidase, read-out: IC50 (Table 2, repeated beside docking results)
[4] = tested up to 1.0 mM, PBS pH 6.8, 37 °C, NA = not active, read-out: α-Glucosidase inhibitory activity IC50

Sequence of α-Glucosidase (E.C.3.2.1.20) enzyme (Saccharomyces cerevisiae) (P53341 whole entry): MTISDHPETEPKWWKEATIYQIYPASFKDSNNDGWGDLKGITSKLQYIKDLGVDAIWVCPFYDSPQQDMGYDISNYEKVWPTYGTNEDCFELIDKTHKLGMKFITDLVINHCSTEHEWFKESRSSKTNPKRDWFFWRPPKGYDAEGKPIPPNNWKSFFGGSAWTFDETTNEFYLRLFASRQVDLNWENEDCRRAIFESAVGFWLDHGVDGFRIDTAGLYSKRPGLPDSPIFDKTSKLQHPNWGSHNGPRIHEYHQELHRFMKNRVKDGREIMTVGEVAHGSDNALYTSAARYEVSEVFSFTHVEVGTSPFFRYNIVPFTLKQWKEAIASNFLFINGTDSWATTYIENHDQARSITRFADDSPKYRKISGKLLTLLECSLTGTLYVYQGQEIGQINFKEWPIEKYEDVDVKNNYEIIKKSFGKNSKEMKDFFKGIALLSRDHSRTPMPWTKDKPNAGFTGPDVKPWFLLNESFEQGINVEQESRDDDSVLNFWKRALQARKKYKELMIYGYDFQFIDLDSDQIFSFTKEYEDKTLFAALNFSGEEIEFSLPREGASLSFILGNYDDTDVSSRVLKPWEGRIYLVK

Row | IC50 [4] | Compound | IC50 [2] | other results
1 |  | C/C=C(\CC[C@@H](C)[C@H]1CC[C@H]2[C@@H]3CC=C4C[C@@H](O)CC[C@]4(C)[C@H]3CC[C@]12C)C(C)C [Compound 3, Fucosterol] | 289 ± 4.91 µM | IC50 [1]: 289 µM
2 | 659.8 ± 2.15 µM | CCCCCCCCCCCCCCCCCCCCCCCCCC(=O)O [Compound 6, Cerotic acid] |  | IC50 [3]: 660 µM
3 |  | CCCCCCCCC=CCCCCCCCCCC(=O)O [Compound 8, 11-Eicosenoic acid] | 480 µM | IC50 [1]: 480 µM
4 |  | CCCCCCCCCCCCCCCC(=O)OC [Compound 4, n-Hexadecanoic acid, methyl ester] |  | α-glucosidase inhibition in words (in vitro): inactive
5 |  | CCOC(=O)c1ccc(C(=O)OCC)c(Br)c1 [Compound 2, Diethyl 2-bromobenzene 1,4-dioate] | ~234 µM | IC50: 234 µM
6 | 30.5 ± 0.41 µM | CCCCCCCCCCCCCCCCCCC=CCCCCCCCC(=O)O [Compound 7, n-Octacos-9-enoic acid] |  | 

Row | Compound | IC50 [4] | IC50 [2] | other results
7 | Ethyl methyl 2-bromobenzene 1,4-dioate [Compound 1] | 522 ± 0.51 µM |  | IC50 [3]: 522 µM
